From ChEMBL document CHEMBL3507680, “University of Dundee, Gates Library screen for HepG2 cell viability”

Experiment: Human HepG2 cell viability assay in 384 well format
Type: toxicity, cell-based
Set-up: dose 125 nL, time 70.5 hour; concentration not given beside the values
Details: HepG2 cells, read-out: Inhibition

Row | Structure (SMILES) | cytotoxicity at 70.5 h [%]
1 | Cc1nn(C)c2c(=O)n(CC(=O)NC3CCCCC3)ccc12 | -1.28
2 | CCC(C)NC(=O)Cn1ccc2sc(C)cc2c1=O (centres undefined) | -0.388
3 | CN1CCCC1CCNC(=O)Nc1ccccc1 (centres undefined) | -5
4 | CC(=O)N1CC=C(n2c(=O)[nH]c3ccccc32)CC1 | -5.58
5 | Cc1ccccc1CSc1ncccc1C(=O)N(C)C | -2.93
6 | COc1ccc(C(=O)Nc2cccc(C(N)=O)c2)c(OC)n1 | 9.82
7 | COc1ccc(C(=O)N(CCO)Cc2ccccc2)c(OC)n1 | 21.2
8 | CSc1ncccc1C(=O)NCc1ccc(N(C)C)cc1 | 40.2
9 | O=C(Nc1cccc2c1CCCC2)c1cccnc1N1CCCNCC1 | -5.23
10 | CCC(CC)NC(=O)c1cccnc1N1CCCC1c1ccccn1 (centres undefined) | 16.4
11 | CCCNc1ccc(C(=O)NCCc2cccc(Cl)c2)cn1 | -4.77
12 | O=C(NC[C@@H]1CCCO1)c1cccnc1N1CCCC1c1ccccn1 (some centres undefined) | -3.08
13 | O=C1CC2(CCN(C(=O)c3ccccn3)CC2)Oc2c(Cl)cc(Cl)cc21 | -6.72
14 | COc1ccc2c(c1)OC1(CCN(Cc3ccc(C)cc3)CC1)CC2=O | 7.29
15 | CN(C)C(=O)CN1CCC2(CC1)CC(=O)c1ccc3ccccc3c1O2 | -6.26
16 | O=C(c1cccnc1SCc1ccccc1)N1CCOCC1 | 0.0391
17 | O=C(NCCCn1ccnc1)c1cccnc1OCC(F)(F)F | 4.36
18 | CCCSc1ncccc1C(=O)NCc1ccc(S(N)(=O)=O)cc1 | -4.05
19 | O=C(N[C@H]1CCCC[C@@H]1O)c1cccc(-c2nc3ccccc3[nH]2)c1 | -2.51
20 | O=C(NC[C@H]1CCCC[C@H]1O)c1ccc2nc(-c3ccco3)[nH]c2c1 | -1.94
21 | CCC(C)CNC(=O)[C@@H]1CCCN1c1nccc(Nc2ccccc2)n1 (some centres undefined) | 1.56
22 | CC(=O)N1N=C(c2ccccc2)OC1C(=O)NCCc1ccc(C)cc1 (centres undefined) | 0.438
23 | CC(=O)N1N=C(c2ccccc2)OC1C(=O)NCCc1ccc(Cl)cc1 (centres undefined) | 8.17

Row | Structure (SMILES) | cytotoxicity at 70.5 h [%]
24 | CC(=O)N1N=C(c2ccccc2)OC1C(=O)N(C)Cc1ccccc1 (centres undefined) | -4.44
25 | Cc1ccc(C)c(-n2ncc(C(=O)NCC3COC(C)(C)O3)c2N)c1 (centres undefined) | 18.9
26 | CC(C)c1ccc(-n2ncc(C(=O)N(C)C3CCN(C)CC3)c2N)cc1 | -2.55
27 | CC(=O)N1N=C(c2cccs2)OC1C(=O)NCCc1cccc(Cl)c1 (centres undefined) | 28.8
28 | CC(=O)N1N=C(Cc2ccccc2)OC1C(=O)NCC(=O)OC(C)(C)C (centres undefined) | -4.37
29 | CC(=O)N1N=C(c2ccco2)OC1C(=O)NCCc1ccc(F)cc1 (centres undefined) | 0.102
30 | COc1ccc(NC(=O)C2OC(c3cccs3)=NN2C(C)=O)cc1 (centres undefined) | -1.98
31 | CC(=O)N1N=C(c2cccs2)OC1C(=O)Nc1ccc(C)cc1 (centres undefined) | 1.28
32 | CC(=O)N1N=C(c2cccs2)OC1C(=O)NCc1ccc(C)o1 (centres undefined) | -1.09
33 | Nc1c(N2CCCC2)ncnc1N1CCOCC1 | 20.6
34 | CC1CCN(C(=O)c2cnc3cc(C(=O)N(C)C)n(C)c3c2)CC1 | 6.93
35 | Nc1c(N2CCOCC2)ncnc1N1CCOCC1 | 0.518
36 | COc1c(C(=O)N2CCOCC2)cnc2c1c(C)nn2C | 0.987
37 | Cc1nc2cc(C(=O)N(CCC#N)CC3CCCO3)ccc2[nH]1 (centres undefined) | -1.19
38 | CC(C)(Oc1ccc(C(N)=O)cc1)C(=O)N(CCC#N)CC1CCCO1 (centres undefined) | 6.27
39 | Cc1nn(-c2ccccc2Cl)c(C)c1CCC(=O)NCCS(C)(=O)=O | 1.1
40 | CC(C)(C)C(=O)CN1Cc2ccccc2NCCC1=O | 0.78
41 | O=C1CCNc2cc3c(cc2CN1CC1CC1)OCO3 | 0.558
42 | COC(=O)CN1Cc2cc3c(cc2NCCC1=O)OCO3 | -9.74
43 | CCCC(O)CN1CC(C)(C)CN(C(=O)c2ccccc2)CC1=O (centres undefined) | -10.1
44 | CC1(C)CNC(=O)CN(C(=O)CCc2ccccc2)C1 | -3.7
45 | CCCS(=O)(=O)N1CC(=O)N(CCCc2ccccc2)CC(O)C1 (centres undefined) | 10.8
46 | O=C1CN(S(=O)(=O)CC(F)(F)F)CC(O)CN1CCCc1ccccc1 (centres undefined) | -3.16

Row | Structure (SMILES) | cytotoxicity at 70.5 h [%]
47 | COc1ccccc1CN1CC(OC)CN(C(=O)CC(C)C)CC1=O (centres undefined) | -5.03
48 | COc1ccccc1CN1CC(OC)CN(C(=O)OCC(C)C)CC1=O (centres undefined) | -3.02
49 | CCCC(O)CN1CC(C)(C)CN(C(=O)c2ccc(Cl)cc2)CC1=O (centres undefined) | -9.8
50 | CC1(C)CNC(=O)CN(C(=O)Cc2ccccc2)C1 | 0.101
51 | CCCC(O)CN1CC(C)(C)CN(C(=O)c2ccc(SC)cc2)CC1=O (centres undefined) | -8.02
52 | O=S1(=O)c2cnccc2OC(COc2ccccc2)CN1CC1CC1 (centres undefined) | -1.49
53 | CC(C)(C)CN1CC(COc2ccccc2)Oc2ccncc2S1(=O)=O (centres undefined) | 10.8
54 | CCOC(=O)[C@H]1[C@@H](O)C(=O)N(C)C12CCN(C(=O)CC(C)C)CC2 | -6.09
55 | CCOC(=O)[C@H]1[C@@H](O)C(=O)N(C)C12CCN(S(=O)(=O)CC)CC2 | -10.3
56 | CCOC(=O)[C@H]1[C@@H](O)C(=O)N(C)C12CCN(C(=O)C(CC)CC)CC2 | -3.26
57 | CCOC(=O)[C@H]1[C@@H](O)C(=O)N(C)C12CCN(C(=O)CC1CCCC1)CC2 | -3.01
58 | CCN1CC(CN2CCOCC2)Oc2ncccc2C1=O (centres undefined) | 13.2
59 | O=C1c2cccnc2OC(CN2CCOCC2)CN1Cc1cccs1 (centres undefined) | -4.39
60 | CCN1Cc2cc3c(cc2NCCC1=O)OCO3 | 6.48
61 | COCCCN1CC2(CCCCN2C(=O)C2CCCCC2)CC1=O (centres undefined) | -3.42
62 | CC(=O)N1CCC2(CC1)C(=O)N(c1ccc(C)nc1)CCN2CC(C)C | -4.45
63 | COc1ncccc1CN1CC[C@H]2O[C@@H](c3nnc(C)o3)CC[C@H]21 | -6.07
64 | c1cncc(COCC2CNCc3nccn3C2)c1 (centres undefined) | 3.07
65 | CC(C)(CO)CNC(=O)c1ccnn1-c1ccc2ccccn12 | -2.1
66 | COCCCN1CC2(CCCCN2C(C)=O)CC1=O (centres undefined) | -7.86
67 | CCn1cc(CN2CCCN(C(=O)CCN3CCCC3=O)CC2)cn1 | -3.66
68 | CC1CCCN(Cc2ccc(OCc3nccn3C)cc2)C1 (centres undefined) | 14.2
69 | Cc1ccc(-c2nc(C(=O)NCC3CCOC3)cs2)cc1 (centres undefined) | -15.2

Row | Structure (SMILES) | cytotoxicity at 70.5 h [%]
70 | O=C(NCC1CCOC1)c1csc(-c2ccc(Cl)cc2)n1 (centres undefined) | -26.9
71 | O=C(NCC1CCOC1)c1csc(-c2ccc(F)cc2)n1 (centres undefined) | -6.03
72 | CCN(Cc1nc2c(cnn2C)c(=O)[nH]1)Cc1ccco1 | -13.6
73 | Cc1ccc(CN(Cc2nc3c(cnn3C)c(=O)[nH]2)C2CC2)o1 | -5.9
74 | CN(C)C(=O)CN1CCN(Cc2coc(-c3cccc(F)c3)n2)CC1 | -11.2
75 | Cc1nccc(CNC(=O)CCc2c(C)nc3cc(O)nn3c2C)n1 | -5.73
76 | CC(C)Cc1cc(NC(=O)c2cccnc2)n(C)n1 | -9.43
77 | Cn1ccnc1COc1ccc(CN2CCC(C(N)=O)CC2)cc1 | -11.1
78 | Cc1cnn(C2CCCN(C(=O)c3ccc(C(N)=O)cn3)C2)c1 (centres undefined) | 3.91
79 | CNC(=O)CCNC(=O)CCc1c(C)nc2cc(O)nn2c1C | -4.97
80 | CCOc1ccc(Cl)c(C(=O)N2CCN(c3ccncc3)CC2)n1 | -13.6
81 | O=C(c1ccc2c(c1)OCO2)N1CCC(Nc2cccnn2)CC1 | 9.12
82 | Cc1ccc(NC2CCN(C(=O)c3ccc4c(c3)CCC4)CC2)nn1 | -0.715
83 | N#Cc1cccc(C(=O)N2CCC(Nc3cccnn3)CC2)c1 | -19.9
84 | Cc1cccc(CNC(=O)CCc2c(C)nc3cc(O)nn3c2C)n1 | -14
85 | Cc1oc(C(=O)O)cc1S(=O)(=O)Nc1ccccc1F | -11.3
86 | Cc1oc(C(=O)O)cc1S(=O)(=O)Nc1cc(F)ccc1F | 5.73
87 | Cc1ccsc1CNC(=O)CCc1c(C)nc2cc(O)nn2c1C | -10.8
88 | Cc1nc(CN2CCCN(c3nccs3)CC2)no1 | 10.6
89 | CCN(CC)CC(=O)N(C)C(c1cccc(F)c1)c1ccccn1 (centres undefined) | 13.5
90 | Cc1ccc(NC2CCN(C(=O)c3sccc3C3CC3)CC2)nn1 | -8.46
91 | COCCN1CCC(NCc2c(F)cccc2F)C1 (centres undefined) | -0.0127
92 | CC(C)c1noc(CN2CCCN(Cc3cccs3)CC2)n1 | -25.6

Row | Structure (SMILES) | cytotoxicity at 70.5 h [%]
93 | Cc1cc(C2CCCN(C(=O)CCc3cscn3)C2)n[nH]1 (centres undefined) | -19.6
94 | CSc1ccc(C(=O)N2CCOCC2c2c(C)nn(C)c2C)o1 (centres undefined) | -4.66
95 | Cc1cc(C(=O)N2CCCC(C)C2)ccc1NCC(=O)N1CCOCC1 (centres undefined) | -2.64
96 | O=C(Nc1cc(C(F)(F)F)c[nH]c1=O)N1CCSCC1 | -8.45
97 | CC1CN(CCc2ccccn2)CCN1c1ccc2nncn2n1 (centres undefined) | -3.22
98 | Cn1cc(C(=O)Nc2cc(F)ccc2OCC2CCCO2)ccc1=O (centres undefined) | -7.6
99 | Cc1ccc(NC2CCN(C(=O)c3cscn3)CC2)nn1 | 0.539
100 | Cc1nnc2ccc(N3CCN(CCc4ccccn4)CC3)nn12 | -0.337
101 | NC(=O)c1cc(C2CCCN(C(=O)CCc3ccncc3)C2)n[nH]1 (centres undefined) | -4.91
102 | Cc1nn(C)c(C)c1C1COCCN1C(=O)CCc1ccccc1 (centres undefined) | -1.71
103 | O=C(CCN1CCN(c2ccc3nncn3n2)CC1)N1CCCCC1 | -5.89
104 | CCN(Cc1ccc2c(c1)OCO2)S(=O)(=O)N(C)C(C)C | -1.76
105 | CCN(CC)S(=O)(=O)N(C)Cc1ccc2c(c1)OCCO2 | -2.26
106 | CCc1nnc(CN2CCCCC2Cn2cncn2)o1 (centres undefined) | 10.6
107 | c1ccc(CCN2CCOC(CNc3cccnn3)C2)nc1 (centres undefined) | -12.5
108 | Cc1nc(C2CCCN(C(=O)CCCn3cccn3)C2)sc1C (centres undefined) | -15.3
109 | O=C(O)[C@@H]1CCCN1c1nccc(Nc2ccccc2)n1 | 16
110 | N#Cc1cccc(N2CCCC3(C2)CN(c2ncccn2)CCO3)n1 (centres undefined) | -6.81
111 | COCc1n[nH]c2c1CN(C(=O)c1ccncc1)C2 | -10.2
112 | CC(=O)N1CCc2cc(C(=O)O)c(-c3ccsc3)nc2CC1 | -0.0308
113 | Cc1nnc([C@@H]2C[C@H]3CN(C4CCC4)C[C@H]3O2)[nH]1 | -0.989
114 | O=C(O)c1csc(NCCc2ccccc2)n1 | -1.2
